Among the data in US8173808B2, “Substituted naphthalenyl-pyrimidine compounds” (ArQule, Inc., priority 2009, dated 2012) are melting point and inhibition values, retold here.

One data set deals with MDA-MB-231. The data set can be described thus: MTS assay, MDA-MB-231. The conditions noted are these: Homo sapiens, 72 hours, 1 Percent FBS. The class given is cell-based.
The subject of another data set is DLD-1. The data set can be described thus: MTS assay, DLD-1. Format: cell-based. Conditions: Homo sapiens, 72 hours, 1 Percent FBS.

Where a name gives a salt, the structure may show the parent alone.

`COc1ccc2cc(-c3ccnc(NCCc4ccc(OC)c(OC)c4)n3)cc(N3CCNCC3)c2c1` (as salt: HCl) [Compound 110, N-(3,4-dimethoxyphenethyl)-4-(6-methoxy-4-(piperazin-1-yl)naphthalen-2-yl)pyrimidin-2-amine] registered a melting point of 138 to 140 °C.

The compound `CNc1nccc(-c2cc(NCCCNCCCOC)c3cc(OC)ccc3c2)n1` (as salt: HCl) [Compound 190, N-{7-methoxy-3-[2-(methylamino)pyrimidin-4-yl]-1-naphthyl}-N′-(3-methoxypropyl)propane-1,3-diamine] displayed a melting point of 130 to 132 °C. The same measure, in the same setting: then `CCN(CC)CCCN1CCN(c2cc(-c3ccnc(NCc4cccc(OC)c4)n3)cc3ccc(OC)cc23)CC1` (as salt: hydrochloride) [Compound 197, 4-(4-(4-(3-(diethylamino)propyl)piperazin-1-yl)-6-methoxynaphthalen-2-yl)-N-(3-methoxybenzyl)pyrimidin-2-amine], with 156 to 160 °C; and `COc1cccc(CNc2nccc(-c3cc(N4CCN(CCCN5CCCC5)CC4)c4cc(OC)ccc4c3)n2)c1` (as salt: hydrochloride) [Compound 198, 4-(6-methoxy-4-(4-(3-(pyrrolidin-1-yl)propyl)piperazin-1-yl)naphthalen-2-yl)-N-(3-methoxybenzyl)pyrimidin-2-amine], with 160 to 167 °C.

As for `CCCN(C)CCCN1CCN(c2cc(-c3ccnc(NCc4cccc(OC)c4)n3)cc3ccc(OC)cc23)CC1` (as salt: hydrochloride) [Compound 199, 4-(6-methoxy-4-(4-(3-(methyl(propyl)amino)propyl)piperazin-1-yl)naphthalen-2-yl)-N-(3-methoxybenzyl)pyrimidin-2-amine], the melting point was in the range of 156 to 160 °C.

As for `COc1cccc(CNc2nccc(-c3cc(N4CCN(CCCN5CCC5)CC4)c4cc(OC)ccc4c3)n2)c1` (as salt: hydrochloride) [Compound 200, 4-(4-(4-(3-(azetidin-1-yl)propyl)piperazin-1-yl)-6-methoxynaphthalen-2-yl)-N-(3-methoxybenzyl)pyrimidin-2-amine], the melting point was 122 to 130 °C. The same measure, in the same setting: the result for `CCN(C)CCCN1CCN(c2cc(-c3ccnc(NCc4cccc(OC)c4)n3)cc3ccc(OC)cc23)CC1` (as salt: hydrochloride) [Compound 201, 4-(4-(4-(3-(ethyl(methyl)amino)propyl)piperazin-1-yl)-6-methoxynaphthalen-2-yl)-N-(3-methoxybenzyl)pyrimidin-2-amine] reads 160 to 169 °C; that for `COc1cccc(CNc2nccc(-c3cc(N4CCN(CCCN(C)C5CCCCC5)CC4)c4cc(OC)ccc4c3)n2)c1` (as salt: hydrochloride) [Compound 202, 4-(4-(4-(3-(cyclohexyl(methyl)amino)propyl)piperazin-1-yl)-6-methoxynaphthalen-2-yl)-N-(3-methoxybenzyl)pyrimidin-2-amine], 155 to 161 °C; that for `COCCCNc1nccc(-c2cc(N3CCNCC3)c3cc(OC)ccc3c2)n1` [Compound 113, 4-(6-methoxy-4-piperazin-1-yl-2-naphthyl)-N-(3-methoxypropyl)pyrimidin-2-amine], 136 to 138 °C.

Regarding `COc1ccc2cc(-c3ccnc(NCCCN(C)C)n3)cc(N3CCNCC3)c2c1` [Compound 114, N′-[4-(6-methoxy-4-piperazin-1-yl-2-naphthyl)pyrimidin-2-yl]-N,N-dimethylpropane-1,3-diamine], the melting point was in the range of 188 to 190 °C. In the case of `COc1cccc(CCNc2nccc(-c3cc(N4CCNCC4)c4cc(OC)ccc4c3)n2)c1` [Compound 115, N-[2-(3-methoxyphenyl)ethyl]-4-(6-methoxy-4-piperazin-1-yl-2-naphthyl)pyrimidin-2-amine], the melting point is 142 to 144 °C. As for `CNc1nccc(-c2cc(NC(=O)CN(C)C)c3cc(OC)ccc3c2)n1` [Compound 137, 2-(dimethylamino)-N-(7-methoxy-3-(2-(methylamino)pyrimidin-4-yl)naphthalen-1-yl)acetamide], the melting point fell in the range of 70 to 73 °C. The same measure, in the same setting: then `CNc1nccc(-c2cc(NC(=O)CNCCO)c3cc(OC)ccc3c2)n1` [Compound 138, 2-((2-hydroxyethyl)amino)-N-(7-methoxy-3-(2-(methylamino)pyrimidin-4-yl)naphthalen-1-yl)acetamide], with 169 to 172 °C. Same read-out and setting: then `COc1ccc2cc(-c3ccnc(N(C)C)n3)cc(NC3CCN(c4ncnc5[nH]nc(Br)c45)CC3)c2c1` [Compound 144, 4-(4-((1-(3-bromo-1H-pyrazolo[3,4-d]pyrimidin-4-yl)piperidin-4-yl)amino)-6-methoxynaphthalen-2-yl)-N,N-dimethylpyrimidin-2-amine], with 167 to 172 °C. For the compound `CNc1nccc(-c2cc(NC3CCN(c4cc(Cl)ncn4)CC3)c3cc(OC)ccc3c2)n1` [Compound 159, 4-(4-{[1-(6-chloropyrimidin-4-yl)piperidin-4-yl]amino}-6-methoxy-2-naphthyl)-N-methylpyrimidin-2-amine], the values for the inhibition at 10 µM in the data set on MDA-MB-231 and with DLD-1 were 42% and 93%, respectively. The corresponding values for `CNc1nccc(-c2cc(NC3CCN(c4nc(C)cc(C(=O)OC)n4)CC3)c3cc(OC)ccc3c2)n1` [Compound 163, methyl 2-[4-({7-methoxy-3-[2-(methylamino)pyrimidin-4-yl]-1-naphthyl}amino)piperidin-1-yl]-6-methylpyrimidine-4-carboxylate] are 98% and 97%. For `CNc1nccc(-c2cc(NC3CCN(c4ncnc5c(C)csc45)CC3)c3cc(OC)ccc3c2)n1` [Compound 164, 4-(6-methoxy-4-{[l-(7-methylthieno[3,2-d]pyrimidin-4-yl)piperidin-4-yl]amino}-2-naphthyl)-N-methylpyrimidin-2-amine], the inhibition at 10 µM with MDA-MB-231 was 90%; in the data set with DLD-1 it was 98%. For `CNc1nccc(-c2cc(NC3CCN(c4ncccc4C(=O)OC)CC3)c3cc(OC)ccc3c2)n1` [Compound 168, methyl 2-[4-({7-methoxy-3-[2-(methylamino)pyrimidin-4-yl]-1-naphthyl}amino)piperidin-1-yl]nicotinate], in that order: 99% and 98%.

For the compound `COCCCNc1nccc(-c2cc(N3CCN(c4ncnc5[nH]nc(Br)c45)CC3)c3cc(OC)ccc3c2)n1` [Compound 177, 4-{4-[4-(3-bromo-1H-pyrazolo[3,4-d]pyrimidin-4-yl)piperazin-1-yl]-6-methoxy-2-naphthyl}-N-(3-methoxypropyl)pyrimidin-2-amine], the melting point lay in the range of 225 to 227 °C. Still for that read-out and setting: the result for `COc1ccc2cc(-c3ccnc(NCCCN(C)C)n3)cc(N3CCN(c4ncnc5[nH]nc(Br)c45)CC3)c2c1` [Compound 178, N1-(4-(4-(4-(3-bromo-1H-pyrazolo[3,4-d]pyrimidin-4-yl)piperazin-1-yl)-6-methoxynaphthalen-2-yl)pyrimidin-2-yl)-N3,N3-dimethylpropane-1,3-diamine] reads 152 to 155 °C; that for `COc1ccc2cc(-c3ccnc(NCCc4ccc(OC)c(OC)c4)n3)cc(N3CCN(c4ncnc5[nH]nc(Br)c45)CC3)c2c1` [Compound 179, 4-{4-[4-(3-bromo-1H-pyrazolo[3,4-d]pyrimidin-4-yl)piperazin-1-yl]-6-methoxy-2-naphthyl}-N-[2-(3,4-dimethoxyphenyl)ethyl]pyrimidin-2-amine], 130 to 133 °C. Same read-out and setting: the result for `COc1cccc(CCNc2nccc(-c3cc(N4CCN(c5ncnc6[nH]nc(Br)c56)CC4)c4cc(OC)ccc4c3)n2)c1` [Compound 180, 4-{4-[4-(3-bromo-1H-pyrazolo[3,4-d]pyrimidin-4-yl)piperazin-1-yl]-6-methoxy-2-naphthyl}-N-[2-(3-methoxyphenyl)ethyl]pyrimidin-2-amine] reads 200 to 203 °C. As to `CNc1nccc(-c2cc(NCCCNc3ncnc4[nH]nc(Br)c34)c3cc(OC)ccc3c2)n1` [Compound 183, N1-(3-bromo-1H-pyrazolo[3,4-d]pyrimidin-4-yl)-N3-(7-methoxy-3-(2-(methylamino)pyrimidin-4-yl)naphthalen-1-yl)propane-1,3-diamine], the melting point is 145 to 148 °C. Still for that read-out and setting: then `CNc1nccc(-c2cc(NC(=O)c3ccc(C(C)(C)C)cc3)c3cc(OC)ccc3c2)n1` [Compound 184, 4-tert-butyl-N-{7-methoxy-3-[2-(methylamino)pyrimidin-4-yl]-1-naphthyl}benzamide], with 231 to 232 °C; and `CNc1nccc(-c2cc(NC(=O)c3ccccc3)c3cc(OC)ccc3c2)n1` [Compound 185, N-{7-methoxy-3-[2-(methylamino)pyrimidin-4-yl]-1-naphthyl}benzamide], with 201 to 203 °C. Same read-out and setting: the result for `CNc1nccc(-c2cc(NC(C)=O)c3cc(OC)ccc3c2)n1` [Compound 186, N-{7-methoxy-3-[2-(methylamino)pyrimidin-4-yl]-1-naphthyl}acetamide] reads 234 to 235 °C; that for `CNc1nccc(-c2cc(NC(=O)c3ccc(C(F)(F)F)cc3)c3cc(OC)ccc3c2)n1` [Compound 187, N-{7-methoxy-3-[2-(methylamino)pyrimidin-4-yl]-1-naphthyl}-4-(trifluoromethyl)benzamide], 227 to 229 °C; that for `CNc1nccc(-c2cc(NC(=O)c3ccc(OC)cc3)c3cc(OC)ccc3c2)n1` [Compound 188, 4-methoxy-N-{7-methoxy-3-[2-(methylamino)pyrimidin-4-yl]-1-naphthyl}benzamide], 214 to 215 °C. Same read-out and setting: then `CNc1nccc(-c2cc(NCCCNCCCN(C)C)c3cc(OC)ccc3c2)n1` [Compound 191, N′-[3-({7-methoxy-3-[2-(methylamino)pyrimidin-4-yl]-1-naphthyl}amino)propyl]-N,N-dimethylpropane-1,3-diamine], with 142 to 144 °C. Turning to `CNc1nccc(-c2cc(NCCCSC(=N)N)c3cc(OC)ccc3c2)n1` [Compound 192, 3-({7-methoxy-3-[2-(methylamino)pyrimidin-4-yl]-1-naphthyl}amino)propyl imidothiocarbamate], the melting point was 94 to 97 °C.
